What all share (assay): NCI-60 cell line screen, 48 h
Assay [1] relates to HS 578T breast.
The subject of assay [2] is EKVX NSCLC.
In assay [3] the test system is 786-0 renal.
Assay [4] concerns T-47D breast.
The test system of assay [5] is BT-549 breast.

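Test compounds were applied to cells in 96-well plates for 48 hours at 5 doses. Abbreviation: GI50, concentration required for 50% inhibition of growth. TGI marks complete inhibition of growth.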

For `CCn1c(=N)sc2nc3ccccc3n2c1=O`, the TGI in assay [1], in assay [2], in assay [3] and in assay [4] was more than 100 µM in each case.

`O=C([CH-]C(=O)c1ccccc1)c1ccccc1.O=C([CH-]C(=O)c1ccccc1)c1ccccc1.O=C([CH-]C(=O)c1ccccc1)c1ccccc1.[Cl-].[Zr+4]`: in assay [2], the GI50 was 4.03 µM and the TGI came to 26.8 µM. Moreover, in assay [3], the GI50 was 18.6 µM and the TGI turned out to be 70.3 µM.

Turning to `COc1ccc2c(c1)O/C(=C\c1cccc(OCC(=O)Nc3nc(C)c(C)s3)c1)C2=O`, the GI50 was 5.24 µM in assay [1]; 8.42 µM in assay [2]; 0.715 µM in assay [3]; 16.7 µM in assay [5]; 8.76 µM in assay [4]. In addition, the TGI in assay [1] is more than 41.5 µM; in assay [2], more than 54.1 µM; in assay [3], 2.08 µM; in assay [5], 55.2 µM; in assay [4], more than 100 µM.

With `Cc1cccc(Nc2cc(Cl)nc(SCC(=O)O)n2)c1C`, the TGI in assay [1], in assay [2], in assay [3], in assay [5] and in assay [4] was more than 100 µM in each case.

`COc1cccc(NC(=O)c2sc3nc4c(cc3c2N)C(O)CCC4)c1` (stereo not drawn): the GI50 in assay [1] is 0.325 µM; in assay [3] it was 0.503 µM; in assay [5] it was 0.274 µM; in assay [4], 0.727 µM. Also, the TGI in assay [1] is more than 49.9 µM; in assay [3], more than 100 µM; in assay [5] it was more than 100 µM; in assay [4] it was more than 100 µM.

On to `CCN(CC)c1ccc2nc3ccc(N=Nc4ccc(O)cc4)cc3[n+](-c3ccccc3)c2c1`, for which the GI50 is 1.88 µM in assay [1]; 3.59 µM in assay [2]; 26.6 µM in assay [3]; 10.5 µM in assay [5]; 3.6 µM in assay [4]. For the same molecule, the TGI in assay [1] was more than 100 µM; in assay [2], 64.8 µM; in assay [3] it was more than 100 µM; in assay [5] it was 31.8 µM; in assay [4], 84.1 µM.

As to `COc1cc(-c2cc3ncccc3c3[nH]c(=O)c4cccnc4c23)cc(OC)c1OC`, the GI50 in assay [1] is 0.914 µM; in assay [2], 0.818 µM; in assay [3] it was 0.722 µM; in assay [5] it was 0.427 µM; in assay [4] it was 0.789 µM. In addition, the TGI in assay [1] was more than 100 µM; in assay [2], more than 100 µM; in assay [3] it was more than 100 µM; in assay [5], 55.2 µM; in assay [4] it was more than 100 µM.

`Cc1nc(Sc2nc3ccc([N+](=O)[O-])cc3s2)sc1C`: the GI50 in assay [1] was 3.03 µM; in assay [2], 11.6 µM; in assay [3], 1.78 µM; in assay [5] it was 0.989 µM; in assay [4] it was 1.32 µM. In addition, the TGI is 16.4 µM in assay [1]; 24.2 µM in assay [2]; 6.1 µM in assay [3]; 2.85 µM in assay [5]; 6.17 µM in assay [4].

Turning to `OC(COc1ccccc1)CN1CCCCC1` (stereo not drawn), the TGI in assay [1], in assay [2], in assay [3], in assay [5] and in assay [4] was more than 100 µM each time.

For `O=C1Nc2ccccc2/C1=C/c1cn(CC(O)Cn2cc(/C=C3\C(=O)Nc4ccccc43)c3ccccc32)c2ccccc12` (stereo not drawn), the values for the GI50 in assay [1], in assay [2] and in assay [3] were 2.43 µM, 1.81 µM and 1.67 µM, respectively. The TGI in assay [1] was 7.85 µM; in assay [2], 3.78 µM; in assay [3], 3.21 µM.

As for `O=C(Nc1ccc2c(c1)OCCO2)C(=O)c1c[nH]c2ccccc12`, the GI50 was 1.72 µM in assay [1]; 5.37 µM in assay [2]; 4.28 µM in assay [3]; 3.48 µM in assay [5]; 9.86 µM in assay [4]. The TGI in assay [1] is 22.9 µM; in assay [2], more than 100 µM; in assay [3], 44.9 µM; in assay [5], 38.1 µM; in assay [4], more than 100 µM.

As to `COc1cc(CN(c2ccc(C)cc2)C2OC(=O)c3ccccc32)cc(OC)c1OC` (stereo not drawn), the GI50 in assay [1] was 0.308 µM; in assay [2], 0.647 µM; in assay [3] it was 0.691 µM; in assay [5], 0.727 µM. Also, the TGI in assay [1] was more than 100 µM; in assay [2], more than 100 µM; in assay [3], more than 100 µM; in assay [5], 99.3 µM.

Consider `COc1cc(-c2nccc3cc4c(cc23)OCO4)cc(OC)c1OC`, for which the GI50 is 1.64 µM in assay [1]; 7.1 µM in assay [2]; 7.65 µM in assay [3]; 16.6 µM in assay [5]; 5.25 µM in assay [4]. In addition, the TGI in assay [1] was 9.57 µM; in assay [2], more than 100 µM; in assay [3] it was more than 100 µM; in assay [5], more than 100 µM; in assay [4] it was more than 100 µM.

`COc1ccc(-c2nn3ncccc3c2-c2ccnc(Nc3ccc4c(c3)OCCO4)n2)cc1`: the GI50 in assay [1] was 10.2 µM; in assay [2], 9.61 µM; in assay [3], 8.38 µM; in assay [5], 12.8 µM; in assay [4], 4.58 µM. Also, the TGI in assay [1], in assay [2], in assay [3], in assay [5] and in assay [4] was more than 25 µM each time.

As to `CCc1nn2ncccc2c1-c1ccnc(NC2CC2)n1`, the GI50 in assay [1] was more than 18.5 µM; in assay [2], more than 25 µM; in assay [3], more than 25 µM; in assay [5], more than 25 µM; in assay [4] it was more than 25 µM. In addition, the TGI in assay [1], in assay [2], in assay [3], in assay [5] and in assay [4] was more than 25 µM in each case.

Turning to `O=C(Oc1ccccc1)C(Br)C(Br)c1ccccc1` (stereo not drawn), the GI50 in assay [1] is 2.87 µM; in assay [2], 11.9 µM; in assay [3] it was 4.59 µM; in assay [5] it was 11.7 µM; in assay [4] it was 2.62 µM. The TGI amounted to 8.12 µM in assay [1]; 24.8 µM in assay [2]; 16.8 µM in assay [3]; 25.6 µM in assay [5]; 6.23 µM in assay [4].

For `C=C(CN1c2ccccc2Sc2ccccc21)c1ccc(C(=O)Nc2ccccc2N)cc1`, the GI50 in assay [1] was more than 100 µM; in assay [2], more than 86 µM; in assay [3], 0.832 µM; in assay [5], more than 27.3 µM; in assay [4], 6.14 µM. In addition, the TGI in assay [1], in assay [2], in assay [3], in assay [5] and in assay [4] was more than 100 µM throughout.

For the molecule `COc1cc2nc(-c3cccc4cccnc34)nc(NC3CCN(Cc4ccccc4)CC3)c2cc1OC`, the GI50 in assay [1] is 2.07 µM; in assay [2] it was 1.48 µM; in assay [3], 1.2 µM; in assay [5], 1.58 µM. For the same molecule, the TGI in assay [1] is 4.81 µM; in assay [2], 3.3 µM; in assay [3] it was 2.69 µM; in assay [5] it was 3.36 µM.

Regarding `COc1ccc(-c2nsc3c2NC(=O)CC3c2cccc(Cl)c2)cc1` (stereo not drawn), the GI50 in assay [1] was 2.98 µM; in assay [3] it was 9.39 µM; in assay [5], 7.51 µM; in assay [4] it was 3.54 µM. For the same molecule, the TGI was more than 65.4 µM in assay [1], more than 100 µM in assay [3], more than 100 µM in assay [5] and more than 100 µM in assay [4].

In the case of `CC1=C(C#N)C(/C=C(\Cl)c2ccc(F)cc2)C(C#N)=C(C)N1`, the GI50 in assay [1], in assay [2], in assay [3], in assay [5] and in assay [4] was more than 100 µM in each case. Besides, the TGI in assay [1], in assay [2], in assay [3], in assay [5] and in assay [4] was more than 100 µM in each case.

Take `S=C(CSc1ccccc1)Nc1cccc2ccccc12`: the TGI in assay [1], in assay [2], in assay [3], in assay [5] and in assay [4] was more than 100 µM each time.

`Nc1nc2c(ccc3ccccc32)s1`: the GI50 in assay [1] is more than 100 µM; in assay [2], 40.5 µM; in assay [3], more than 100 µM; in assay [5] it was more than 100 µM; in assay [4], 95.5 µM. Further, the TGI in assay [1], in assay [2], in assay [3], in assay [5] and in assay [4] was more than 100 µM in each case.

On to `COc1ccc(-c2nc(N)c(C#N)c3c2CCOc2c-3ccc3ccccc23)cc1`, for which the values for the GI50 in assay [1], in assay [3] and in assay [4] were 31.8 µM, 17.2 µM and 22.8 µM, respectively. Further, the results for the TGI in assay [1], in assay [3] and in assay [4] were 76.6 µM, 48.3 µM and more than 100 µM, respectively.

As for `CC(C)(C)c1nc(-c2cccc(NS(=O)(=O)c3c(F)cccc3F)c2F)c(-c2ccnc(N)n2)s1`, the GI50 in assay [1] was 61.1 µM; in assay [3], 48.9 µM; in assay [5], 37.5 µM; in assay [4], 25.9 µM. For the same molecule, the TGI was more than 100 µM in assay [1], more than 100 µM in assay [3], more than 72.1 µM in assay [5] and 99 µM in assay [4].

Consider `CCCCN1C(=O)/C(=c2\sc3n(c2=O)C2C(NN=3)N(CC)C(=O)N2CC)c2ccccc21` (stereo not drawn), for which the GI50 in assay [1] was 0.749 µM; in assay [2], 1.38 µM; in assay [3] it was 1.14 µM; in assay [5], 1.76 µM. For the same molecule, the TGI is 6.04 µM in assay [1], more than 100 µM in assay [2], 4.18 µM in assay [3] and 9.19 µM in assay [5].

For the molecule `CC(=O)O[C@H](C[C@H](C(C)C)N(C)C(=O)[C@@H](NC(=O)[C@H]1CCCCN1C)C(C)C)c1cccc(C(=O)N[C@@H](Cc2ccccc2)C[C@H](C)C(=O)O)n1`, the GI50 in assay [2] is 0.255 µM; in assay [3], 0.0463 µM; in assay [5] it was 0.0154 µM; in assay [4] it was 0.0818 µM. In addition, the TGI in assay [2] is more than 25 µM; in assay [3], more than 25 µM; in assay [5], 0.48 µM; in assay [4], more than 25 µM.

Consider `CCOc1ccc(C(C)=O)cc1NC(=O)c1cccc(-c2nnn(CC)n2)c1`, for which the GI50 was 0.996 µM in assay [1], 0.83 µM in assay [2], 6.25 µM in assay [3] and 0.961 µM in assay [5]. In addition, the TGI in assay [1] is more than 100 µM; in assay [2], more than 100 µM; in assay [3] it was 74.2 µM; in assay [5], more than 100 µM.

In the case of `Cc1cn2c(/C=N/N=C(N)N)c(-c3ccncc3)nc2s1`, the figures for the GI50 in assay [2], in assay [3] and in assay [4] were 12.5 µM, 15.8 µM and 16.2 µM, respectively. Further, the TGI in assay [2] was found to be 26.8 µM; in assay [3], 29.3 µM; in assay [4], 31.6 µM.

`CC/C(Cc1ccccc1)=C(/c1ccc(O)cc1)c1ccc(OCCN2CCCC2)cc1`: the GI50 in assay [1] was 1.86 µM; in assay [2], 1.44 µM; in assay [3], 1.72 µM; in assay [4], 1.26 µM. Further, the TGI in assay [1] was determined as 5.83 µM; in assay [2], 2.89 µM; in assay [3], 3.22 µM; in assay [4], 3.32 µM.

Turning to `COc1cc(NC(C)CCCNC(C)C)c2ncccc2c1OC` (stereo not drawn), the GI50 in assay [1] is 4.74 µM; in assay [2], 36.4 µM; in assay [3], more than 100 µM; in assay [4], 17 µM. Further, the TGI in assay [1] was 60.7 µM; in assay [2], more than 100 µM; in assay [3] it was more than 100 µM; in assay [4] it was more than 100 µM.

For the molecule `CCC[CH2][Sn]([CH2]CCC)([CH2]CCC)[O]C(=O)C(OC)c1ccccc1` (stereo not drawn), in assay [2], the GI50 is 0.0277 µM and the TGI was determined as 0.228 µM. Further, in assay [3], the GI50 is 0.142 µM and the TGI was determined as 0.288 µM.

In the case of `COc1ccc2[nH]c(C(=O)OCc3ccc4cccc(O)c4n3)cc2c1`, the GI50 was 1.78 µM in assay [1], 1.51 µM in assay [2], 1.68 µM in assay [3] and 1.69 µM in assay [5]. Besides, the TGI in assay [1] is 4.6 µM; in assay [2], 2.89 µM; in assay [3], 3.31 µM; in assay [5], 3.74 µM.
